Values after ≈ are worked out from the molar mass of the structure shown.
Legend:
A549 [1] = test: Cytotoxicity against human A549 cells assessed as cell growth inhibition incubated for 48 hrs by CCK-8 assay; type: functional, cell-based; details: A549, 48 h
HCT-116 [2] = test: Cytotoxicity against human HCT-116 cells assessed as cell growth inhibition incubated for 48 hrs by CCK-8 assay; type: functional, cell-based; details: HCT-116, 48 h
HL-60 [3] = test: Antiproliferative activity against human HL-60 cells assessed as cell growth inhibition measured after 72 hrs by CCK-8 assay; type: functional, cell-based; details: HL-60, 72 h
Staphylococcus aureus [4] = test: Antibacterial activity against Staphylococcus aureus ATCC 25923 assessed as bacterial growth inhibition; type: functional, organism-based
HCT-116 [5] = test: Cytotoxicity against human HCT-116 cells assessed as cell growth inhibition by SRB assay; type: functional, cell-based
SW-620 = test: Cytotoxicity against human SW-620 cells assessed as cell growth inhibition by SRB assay; type: functional, cell-based
Candida albicans [6] = test: Antifungal activity against Candida albicans assessed as fungal growth inhibition measured after 20 hrs; type: functional
P388 = test: Cytotoxicity against mouse P388 cells assessed as cell growth inhibition measured after 72 hrs by MTT assay; type: functional, cell-based
[7] = Toxicity in brine shrimp assessed as induction of lethality; details: artemia salina; read-out: LD50 (the source's name)
[8] = Antiproliferative activity against human Pancreatic cancer cell assessed as cell growth inhibition measured after 24 hrs by CCK-8 assay; type: functional, cell-based
[9] = Antioxidant activity assessed as free radical scavenging activity incubated for 30 mins by microplate reader analysis; type: functional
HCT-116 [10] = test: Cytotoxicity against human HCT-116 cells assessed as cell growth inhibition by MTT assay; type: functional, cell-based
SGC-7901 = test: Cytotoxicity against human SGC-7901 cells assessed as cell growth inhibition measured after 48 hrs by MTT assay; type: functional, cell-based; details: SGC-7901, 48 h
MCF7 [11] = test: Cytotoxicity against human MCF7 cells assessed as cell growth inhibition; type: functional, cell-based
[12] = Cytotoxicity against human HM02 cells assessed as cell growth inhibition; type: functional
HepG2 [13] = test: Cytotoxicity against human HepG2 cells assessed as cell growth inhibition; type: functional
Candida albicans [14] = test: Antifungal activity against Candida albicans ATCC 10231 assessed as fungal growth inhibition by agar dilution method; type: functional
Staphylococcus aureus [15] = test: Antibacterial activity against methicillin-resistant Staphylococcus aureus assessed as bacterial cell growth inhibition by agar dilution method; type: functional
HL-60 [16] = test: Cytotoxicity against human HL-60 cells assessed as cell growth inhibition measured after 72 hrs by MTT assay; type: functional, cell-based; details: HL-60, 72 h
A549 [17] = test: Cytotoxicity against human A549 cells assessed as cell growth inhibition measured after 72 hrs by MTT assay; type: functional, cell-based; details: A549, 72 h
[18] = target: Prostaglandin G/H synthase 2 (Homo sapiens) (UniProt P35354); test: Inhibition of COX2 (unknown origin) at 20 nM relative to control
Sequence of Prostaglandin G/H synthase 2 (Homo sapiens) (P35354 whole entry, looked up): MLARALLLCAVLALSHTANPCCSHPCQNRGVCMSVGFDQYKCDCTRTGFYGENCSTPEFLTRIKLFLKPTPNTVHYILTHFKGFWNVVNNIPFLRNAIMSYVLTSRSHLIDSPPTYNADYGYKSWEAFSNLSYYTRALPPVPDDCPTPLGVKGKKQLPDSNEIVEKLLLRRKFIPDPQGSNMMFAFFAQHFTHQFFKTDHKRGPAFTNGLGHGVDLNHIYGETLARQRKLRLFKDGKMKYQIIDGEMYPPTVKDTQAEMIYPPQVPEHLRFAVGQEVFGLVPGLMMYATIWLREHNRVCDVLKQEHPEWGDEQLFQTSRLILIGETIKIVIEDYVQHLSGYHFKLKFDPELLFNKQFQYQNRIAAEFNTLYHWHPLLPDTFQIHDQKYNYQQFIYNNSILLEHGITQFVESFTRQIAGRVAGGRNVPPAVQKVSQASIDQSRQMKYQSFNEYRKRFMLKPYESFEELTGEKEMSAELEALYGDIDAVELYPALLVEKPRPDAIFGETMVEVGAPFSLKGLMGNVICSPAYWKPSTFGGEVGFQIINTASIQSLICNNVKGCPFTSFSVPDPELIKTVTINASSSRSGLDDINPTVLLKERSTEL

Influenza A virus = test: Antiviral activity against Influenza A virus H1N1; type: functional, organism-based
A-375 = test: Cytotoxicity against human A-375 cells assessed as cell growth inhibition by MTT assay; type: functional, cell-based
A549 [19] = test: Cytotoxicity against human A549 cells assessed as cell growth inhibition by MTT assay; type: functional, cell-based
HepG2 [20] = test: Cytotoxicity against human HepG2 cells assessed as cell growth inhibition by MTT assay; type: functional, cell-based
MCF7 [21] = test: Cytotoxicity against human MCF7 cells assessed as cell growth inhibition by MTT assay; type: functional, cell-based

With `C[C@@H]1O[C@@H](Oc2ccc(C3COc4cc(O)ccc4C3=O)cc2)C[C@H](O)[C@@H]1O` (stereo not given in full) the IC50 (A549 [1]) was 13.5 µg/mL (≈ 34.9 µM) and the IC50 (HCT-116 [2]) was 13.5 µg/mL.
For `COc1nc(C/C=C(\C)C/C=C/C(C)=C/[C@@H](C)/C=C/[C@@H](C)OC)c(C)c(O)c1OC`, the IC50 (HL-60 [3]) was less than 100 nM.
With `O=C1O/C(=C\c2ccc(O)cc2)C(O)=C1c1ccc(O)cc1` [ASPULVINONE E] the IC50 (Staphylococcus aureus [4]) was 26100 nM.
Compound `COc1cc(C)c2c(O)c3c(cc2c1)[C@@H](O)CCC3=O` has an IC50 (HCT-116 [5]) of 630 nM and an IC50 (SW-620) of 630 nM.
Compound `CCCCC[C@H]1C(=O)O[C@H](C)[C@H](NC(=O)c2cccc(NC=O)c2O)C(=O)O[C@@H](C)[C@@H]1OC(=O)[C@@H](C)C(C)C` has an MIC (Candida albicans [6]) of 5 µg/mL (≈ 9.11 µM).
Compound `C=C1CCC(C(C)C)C2/C=C(\C(=O)OC)CC/C=C(/C(=O)O)C(O)CC12` (stereo not given) has an IC50 (HCT-116 [2]) of 38400 nM.
Work on `C=CC(C)(C)c1[nH]c2ccccc2c1/C=C1\NC(=O)[C@]2(C[C@H](C)C=C[C@@H]2CCc2c(O)cc(CC=C(C)C)c(O)c2C=O)NC1=O` (stereo in doubt; 251) yielded an IC50 (P388; Mus musculus, P388, 72 h) of 3430 nM.
In the case of `C=CC(C)(C)c1[nH]c2ccccc2c1/C=C1\NC(=O)[C@@]2(C[C@@H](C)C=C[C@@H]2/C=C/c2c(O)cc(CC=C(C)C)c(O)c2C=O)NC1=O`, the IC50 (P388; Mus musculus, P388, 72 h) is reported as 11300 nM.
Work on `C[C@@H]1O[C@@H](Oc2ccc3c(c2)OCC(c2ccc(O)cc2)C3=O)C[C@H](O)[C@@H]1O` (stereo not given in full) yielded an IC50 (A549 [1]) of 13.5 µg/mL (≈ 34.9 µM) and an IC50 (HCT-116 [2]) of 13.5 µg/mL.
For `CCC/C=C/[C@@H]1Cc2cc(O)c(C)c(O)c2C(=O)O1`, the LC50 [7] was 18.6 µg/mL (≈ 70.9 µM).
Work on `CC[C@H]1[C@H]2[C@H](C[C@H]1C)[C@H]1C[C@H]3/C=C/C(=O)C4=C(O)[C@@H](CCCNC(=O)/C=C\C[C@@H]3[C@H]1[C@@H]1O[C@@H]12)NC4=O` yielded an IC50 [8] of 1300 nM.
Compound `O=C(O)CCCNC(=O)c1ccc(O)c(O)c1` has an IC50 [9] of 4700 nM.
With `CN[C@@H]1O[C@H]2C[C@@](C)([C@@H]1OC)n1c3ccccc3c3c4c(c5c6ccccc6n2c5c31)C(=O)NC4` the IC50 (HCT-116 [10]) was 40 nM.
Work on `CC[C@H]1/C=C/C[C@H](CC(C)C)OC(=O)/C(C)=C\[C@H]2C(=O)NC3=CC(=O)c4c(cc(C)c(O)c4C(=O)CC1)[C@@]32O` yielded an IC50 (SGC-7901) of 2800 nM.
`COC(=O)Nc1ccc(C)c(NC(=O)N(C)[C@@H]2O[C@H]3C[C@@](C)([C@@H]2OC)n2c4ccccc4c4c5c(c6c7ccccc7n3c6c42)C(=O)NC5)c1` gave an IC50 (HCT-116 [10]) of 370 nM.
Work on `CCCCC[C@@H]1Cc2cc(O)cc(O)c2C(=O)O1` yielded an LC50 [7] of 36.4 µg/mL (≈ 145 µM).
`O=C1OC(Cc2ccc(O)cc2)C(c2ccc(O)cc2)C1O` (stereo not given) gave an IC50 (Staphylococcus aureus [4]) of 17400 nM.
In the case of `C=CC(C)(C)c1[nH]c2ccccc2c1/C=C1\NC(=O)[C@]2(C[C@H](C)C=C[C@@H]2CCc2c(O)cc(CC=C(C)C)c(O)c2C=O)NC1=O` (stereo in doubt), the IC50 (P388; p388) is reported as 2500 nM.
For `CC[C@H](C)CCC[C@H]1CCCCC(=O)O1`, the GI50 (MCF7 [11]) was 0.11 µg/mL (≈ 0.518 µM), the GI50 [12] was 0.11 µg/mL (≈ 0.518 µM) and the GI50 (HepG2 [13]) was 0.11 µg/mL (≈ 0.518 µM).
In the case of `CC(=O)OCCCCNC(=O)c1ccc(O)c(O)c1`, the IC50 [9] is reported as 4700 nM.
With `C/C1=C\C=C\C(C)C(O)CC(O)C(C)C(O)CCC(C)C(O)CC2(O)OC(CC(OC(=O)CC(=O)O)CC(O)CC(O)CC(O)/C(C)=C/C=C/C(C)C(C(C)CCC/C=C/CCCNC(=N)N)OC1=O)CC(O)C2O` (stereo not given) the IC50 (HCT-116 [10]) was 1.81 µg/mL, the MIC (Candida albicans [14]) was 1.65 µg/mL (≈ 1.54 µM) and the MBC (Staphylococcus aureus [15]) was 8 µg/mL (≈ 7.49 µM). The MIC (Staphylococcus aureus [15]) was 4 µg/mL (≈ 3.74 µM).
In the case of `CC[C@H]1/C=C/C[C@H](CC(C)C)OC(=O)/C(C)=C\[C@@H]2C(=O)NC3=CC(=O)c4c(cc(C)c(O)c4C(=O)CC1)[C@@]32O`, the IC50 (SGC-7901) is reported as 4700 nM.
Compound `CC1(C)C=Cc2c(ccc3c4c(n(O)c23)C(C)(C)[C@H]2C[C@]35CCCN3C(=O)[C@@]2(C4)NC5=O)O1` has an IC50 (HL-60 [16]) of 4450 nM and an IC50 (A549 [17]) of 1880 nM.
For `CC1=CC(=O)[C@H]2C(C)(C)CCC[C@]2(C)[C@@]1(O)C=O`, the IC50 (P388; Mus musculus, P388, 72 h) was 8700 nM.
With `CC(C)=CCc1cc(C[C@@]2(CC=C(C)C)OC(=O)C(O)C2c2ccccc2)ccc1O` (stereo not given in full) the inhibition [18] was 66.3%.
Compound `CC(=O)C[C@H](c1nc2ccccc2c(=O)n1[C@@H]1C[C@]2(OC1=O)c1ccccc1N1C(=O)C(C)(C)N(O)[C@H]12)C(C)C` has an IC50 (Influenza A virus) of 82000 nM.
Compound `COc1ccc(C[C@@H]2NC(=O)[C@@]34OC(=O)O/C=C/[C@@](C)(O)C(=O)[C@@H](C)C/C=C/[C@H]3[C@@H]3O[C@]3(C)[C@@H](C)[C@@H]24)cc1` has an IC50 (A-375) of 470 nM, an IC50 (A549 [19]) of 470 nM and an IC50 (HepG2 [20]) of 470 nM. For the same compound, the IC50 (MCF7 [21]) was 470 nM.
For `CC(C)=C1NC(=O)[C@@H](C[C@]2(O)c3ccccc3N3C(=O)[C@H](C)N[C@H]32)n2c1nc1ccccc1c2=O`, the IC50 (Influenza A virus) was 82000 nM.

— ChEMBL document CHEMBL5107956, “Natural products from mangrove sediments-derived microbes: Structural diversity, bioactivities, biosynthesis, and total synthesis” (Eur J Med Chem, 2022)
